Measurements reported in patent US20250032460A1, “METHODS OF TREATING NEUROLOGICAL DISORDERS” (MapLight Therapeutics, Inc., priority 2021, published 2025).
Several values for one entry are separate records, joined by “and”; a condition that tells them apart may be missing. Equal entries are not always repeated.

Experiment: Plasma concentrations during 7-day oral dosing in beagle dogs
Assay type: in vivo
[1] = Group 2: fesoterodine fumarate 3 mg/kg/day PO alone, Day 1, 0.25 h
[2] = Group 2: fesoterodine fumarate 3 mg/kg/day PO alone, Day 1, 0.5 h
[3] = Group 2: fesoterodine fumarate 3 mg/kg/day PO alone, Day 1, 1 h
[4] = Group 2: fesoterodine fumarate 3 mg/kg/day PO alone, Day 1, 2 h
[5] = Group 2: fesoterodine fumarate 3 mg/kg/day PO alone, Day 1, 4 h
[6] = Group 2: fesoterodine fumarate 3 mg/kg/day PO alone, Day 1, 8 h
[7] = Group 2: fesoterodine fumarate 3 mg/kg/day PO alone, Day 7, 0.25 h
[8] = Group 2: fesoterodine fumarate 3 mg/kg/day PO alone, Day 7, 0.5 h
[9] = Group 2: fesoterodine fumarate 3 mg/kg/day PO alone, Day 7, 1 h
[10] = Group 2: fesoterodine fumarate 3 mg/kg/day PO alone, Day 7, 2 h
[11] = Group 2: fesoterodine fumarate 3 mg/kg/day PO alone, Day 7, 4 h
[12] = Group 2: fesoterodine fumarate 3 mg/kg/day PO alone, Day 7, 8 h
[13] = Group 3: Compound 1 1.5 mg/kg/day PO + fesoterodine fumarate 3 mg/kg/day PO, Day 1, 0.250 h
[14] = Group 3: Compound 1 1.5 mg/kg/day PO + fesoterodine fumarate 3 mg/kg/day PO, Day 1, 0.500 h
[15] = Group 3: Compound 1 1.5 mg/kg/day PO + fesoterodine fumarate 3 mg/kg/day PO, Day 1, 0.750 h
[16] = Group 3: Compound 1 1.5 mg/kg/day PO + fesoterodine fumarate 3 mg/kg/day PO, Day 1, 1.00 h

CC(C)N(CCC(c1ccccc1)c1cc(CO)ccc1O)C(C)C (stereo not shown) [desfesoterodine, 5-hydroxymethyl tolterodine]
Plasma concentration of desfesoterodine, Mean [1]: 87.775 ng/mL | Plasma concentration of desfesoterodine, individual animals D2001-D2005 [1]: 34.2 ng/ml and 267 ng/ml and 14 ng/ml and BQL and 35.9 ng/ml | Plasma concentration of desfesoterodine, Mean [2]: 75.32 ng/mL | Plasma concentration of desfesoterodine, individual animals D2001-D2005 [2]: 68.4 ng/mL and 176 ng/mL and 75.3 ng/mL and 23.2 ng/mL and 33.7 ng/mL | Plasma concentration of desfesoterodine, Mean [3]: 53.38 ng/mL | Plasma concentration of desfesoterodine, individual animals D2001-D2005 [3]: 31.9 ng/mL and 104 ng/mL and 49.5 ng/mL and 67.6 ng/mL and 13.9 ng/mL | Plasma concentration of desfesoterodine, Mean [4]: 25.296 ng/mL | Plasma concentration of desfesoterodine, individual animals D2001-D2005 [4]: 15.6 ng/mL and 48.4 ng/mL and 15.7 ng/mL and 41.4 ng/mL and 5.38 ng/mL | Plasma concentration of desfesoterodine, Mean [5]: 10.096 ng/mL | Plasma concentration of desfesoterodine, individual animals D2001-D2005 [5]: 12.9 ng/mL and 15.4 ng/mL and 3.93 ng/mL and 14.9 ng/mL and 3.35 ng/mL | Plasma concentration of desfesoterodine, Mean [6]: 3.3175 ng/mL | Plasma concentration of desfesoterodine, individual animals D2001-D2005 [6]: 4.42 ng/ml and 1.74 ng/ml and 2.96 ng/ml and 4.15 ng/ml and BQL | Plasma concentration of desfesoterodine, individual animals D2001-D2005 (Group 2: fesoterodine fumarate 3 mg/kg/day PO alone, Day 1, 24 h): BQL | Plasma concentration of desfesoterodine, individual animals D2001-D2005 (Group 2: fesoterodine fumarate 3 mg/kg/day PO alone, Day 7, 0 h): 1.13 ng/ml and BQL (4×) | Plasma concentration of desfesoterodine, Mean [7]: 103.4 ng/mL | Plasma concentration of desfesoterodine, individual animals D2001-D2005 [7]: 15.3 ng/mL and 315 ng/mL and 121 ng/mL and 47.3 ng/mL and 18.4 ng/mL | Plasma concentration of desfesoterodine, Mean [8]: 167.64 ng/mL | Plasma concentration of desfesoterodine, individual animals D2001-D2005 [8]: 318 ng/mL and 274 ng/mL and 154 ng/mL and 75.6 ng/mL and 16.6 ng/mL | Plasma concentration of desfesoterodine, Mean [9]: 118.7 ng/mL | Plasma concentration of desfesoterodine, individual animals D2001-D2005 [9]: 173 ng/mL and 232 ng/mL and 111 ng/mL and 65.7 ng/mL and 11.8 ng/mL | Plasma concentration of desfesoterodine, Mean [10]: 78.62 ng/mL | Plasma concentration of desfesoterodine, individual animals D2001-D2005 [10]: 91.9 ng/mL and 145 ng/mL and 72.6 ng/mL and 57.8 ng/mL and 25.8 ng/mL | Plasma concentration of desfesoterodine, Mean [11]: 45.66 ng/mL | Plasma concentration of desfesoterodine, individual animals D2001-D2005 [11]: 51.4 ng/mL and 48.6 ng/mL and 44 ng/mL and 40.8 ng/mL and 43.5 ng/mL | Plasma concentration of desfesoterodine, Mean [12]: 8.066 ng/mL | Plasma concentration of desfesoterodine, individual animals D2001-D2005 [12]: 8.12 ng/mL and 7.08 ng/mL and 6.52 ng/mL and 13.8 ng/mL and 4.81 ng/mL | Plasma concentration of desfesoterodine, individual animals D2001-D2005 (Group 2: fesoterodine fumarate 3 mg/kg/day PO alone, Day 7, 24 h): BQL | Plasma concentration of desfesoterodine, individual animals D3001-D3005 (Group 3: Compound 1 1.5 mg/kg/day PO + fesoterodine fumarate 3 mg/kg/day PO, Day 1, 0.00 h): BQL | Plasma concentration of desfesoterodine, Mean [13]: 125 ng/mL | Plasma concentration of desfesoterodine, individual animals D3001-D3005 [13]: 225 ng/mL and 35.2 ng/mL and 333 ng/mL and 23.3 ng/mL and 9.33 ng/mL | Plasma concentration of desfesoterodine, Mean [14]: 111 ng/mL | Plasma concentration of desfesoterodine, individual animals D3001-D3005 [14]: 154 ng/mL and 58.0 ng/mL and 257 ng/mL and 35.9 ng/mL and 52.4 ng/mL | Plasma concentration of desfesoterodine, Mean [15]: 100 ng/mL | Plasma concentration of desfesoterodine, individual animals D3001-D3005 [15]: 136 ng/mL and 35.1 ng/mL and 203 ng/mL and 64.7 ng/mL and 61.3 ng/mL | Plasma concentration of desfesoterodine, Mean [16]: 66.6 ng/mL | Plasma concentration of desfesoterodine, individual animals D3001-D3005 [16]: 96.0 ng/mL and 30.6 ng/mL and 149 ng/mL and 15.8 ng/mL and 41.5 ng/mL | Plasma concentration of desfesoterodine, Mean (Group 3: Compound 1 1.5 mg/kg/day PO + fesoterodine fumarate 3 mg/kg/day PO, Day 1, 2.00 h): 36.0 ng/mL
